Experimental data: PMC11039730, “In situ captured antibacterial action of membrane-incising peptide lamellae” (Nature Communications, 2024)
Converted amounts (≈) assume the structure as drawn. Read-outs that look alike come from different tables or passages of the source.

Columns and labels:
[1] = ANS binding fluorescence (assembly formation); assay type: physicochemical; conditions: 125 μM peptide, 2.5 μM ANS, mean of 3
Protocol: Fluorescence spectra were recorded using a JASCO FP-8500 spectrofluorometer with an excitation and emission bandwidth of 10 nm and 20 nm, respectively. Three accumulations were measured each time. The 8-anilino-1-naphthalenesulfonic acid (ANS) fluorophore was excited at 388 nm and the emission was recorded from 410 to 600 nm. Binding assays were performed using 125 μM peptide (50 μL) and 2.5 μM ANS. Spectra were corrected for those of the corresponding peptide solutions. page 11: Supplementary Figure 8: ANS binding capacity is higher for 3K and in phosphate media. ANS binding of 2K and 3K (125 μM) were tested in the indicated media using the ANS probe at 2.5 μM. The emission intensities at the maxima were read, and values were normalized for that of unbound ANS. Gray line highlights the reference signal of free ANS. In all tested media, higher ANS binding was detected for 3K over 2K. […] Error bars represent the standard deviation of the mean for three independent experiment sets. 11 (1 picture or pasted object on this page, not shown here)

[2] = system: BL21 DE3 Escherichia coli strain; assay type: cell-based
Protocol: To investigate the antimicrobial effect of lamellin-2K and lamellin-3K, we used the BL21 DE3 Escherichia coli strain with chromosomal resistance to chloramphenicol. The inoculum was grown overnight in the presence of 30 μM chloramphenicol. 0.5 mL of this inoculum was diluted into 50 mL fresh LB medium and grown till the optical density at 600 nm reached 0.5−0.6 indicating an exponential growth phase. Cells were then centrifuged at 3220 g at 4 °C for 20 min, washed twice in the assay medium (MQ water, 10 mM PBS, or 0.15 mM NaCl), then resuspended in 5 mL of the same medium. 10 μL cell suspension was diluted with the peptide solution to a final concentration of 250 μM, 125 μM, 60 μM, 30 μM, 10 μM, 5 μM, 1 μM and 0 μM (control) in 100 μl volume and incubated for 2 h in sterile, low-bind, U-bottom 96-well microplates (Greiner Bio-One, Hungary) with oxygen penetrating lid at 37 °C, at continuous shaking in a BioTek Synergy Mx plate reader. Aliquots from the wells were taken for the quantification of bacterial viability on LB agar plates after incubation at 37 °C for 16 h to obtain CFU/mL data. Treatments were performed in three biological replicates, each of which in three technical replicates.
Supplementary Figure 26: Antibacterial activity of 2K and 3K in the presence and absence of phosphate ions. a) Growth inhibition curves. Exponentially growing E. coli BL21 shaker cultures were exposed to the peptides at 37 °C in various media for 120 min. Treatments were performed in three biological replicates, each of which in three technical replicates. Data represent mean and error bars represent SEM. Data points are connected to guide the eye. b) Viability curves calculated from growth inhibition data in (a). Smooth lines are sigmoid fits to […]
Supplementary Table 6: Antimicrobial activity of 2K and 3K in various media. […]
* IC values are calculated from sigmoid fits to the viability vs. log(c) data points.
All errors are standard errors. […]

[3] = system: MonoMac 6 human monocytic cells; assay type: cell-based; conditions: 2 h, AlamarBlue, mean ± SEM, n = 4
Protocol: To evaluate the cytotoxicity of the compounds, AlamarBlue viability assay was performed on MonoMac 6 human monocytic cells (DSMZ no.: ACC 124, Braunschweig, Germany). […] Cells were maintained as an adherent culture in RPMI-1640 media (Lonza, Basel), supplemented with 10% FCS, L-glutamine (2 mM) and penicillin/streptomycin (50 IU/mL and 50 μg/mL) at 37 °C in a humidified atmosphere containing 5% CO2. On the day of the experiment, cells were washed twice with serum-free RPMI or with TRIS-HCl buffer (0.1 M, pH = 7.4) and plated in 96-well flat-bottom tissue culture plates (Sarstedt) (20,000 cells). 250 μM of the lamellin-3K was dissolved and serially diluted (125 μM, 62.5 μM, 31.25 μM, 15.63 μM, 7.81 μM, 3.91 μM, 1.95 μM) in the corresponding assay medium and added to the cells. The final concentration range was between 1.95 and 250 μM and the final volume was 100 μL. […] Following a 2 h of incubation, the fluorescence was measured at λEx = 530/30 and λEm = 610/10 nm using a Synergy H4 multi-mode microplate reader (BioTek). The percent of viability was calculated compared to untreated control wells. […] IC50 values were calculated from the dose-response curves, after fitting with sigmoidal funcion using the GraphPad Prism software package. […]
parallel experiments and error bars represent SEM. The viability percentage was calculated relative to the untreated […]

physchem = assay type: physicochemical; conditions: aqueous buffer
Protocol: For assignment purposes, appropriate amounts of lyophilized solid lamellin-2K (or lamellin-3K, respectively) were dissolved in H2O to prepare ~1 mM solutions, followed by 15 min sonication and addition of 10% D2O. For monitoring the effects of different solvents, the lyophilized lamellin-2K and lamellin-3K were dissolved in PBS, sonicated for 30 min, further on 10% D2O was added. For 2K, the concentration of the lamellin was ~250 μM and the solution contained PBS. […] After each addition, the solution was sonicated for 30 min. All samples were measured at 298 K. […]
Supplementary Figure 7: a) and b) Overlay of 1D 1H spectra in water (c = 1 mM, dark colour) and in PBS (light colour) for 2K (green) and 3K (blue), respectively. Concentration in PBS was ~ 250 µM for 2K and ~ 20 µM for 3K. c) and d) Regions of overlaid 1H-1H TOCSY (green) and 1H-1H ROESY (red) for 2K, indicating sequential connectivities. e) Variation of the 3K concentration during PBS titration determined from the integration of leucine […]

[4] = 10 mM PBS, 2 h at 37 °C, CFU on LB agar, sigmoid fit, ± standard error, 3 biological replicates
[5] = NaCl (0.15 mM [sic] NaCl), 2 h at 37 °C, CFU on LB agar, sigmoid fit, ± standard error, 3 biological replicates

SMILES | ANS fluorescence, Mean ([1]; H2O) | ANS fluorescence, Mean ([1]; NaCl) | ANS fluorescence, Mean ([1]; PBS) | ANS fluorescence, Mean ([1]; phosphate) | IC20 [2, 4] | IC80 [2, 4] | IC80 ([2]; MQ water, 2 h at 37 °C, CFU on LB agar, sigmoid fit to viability vs log(c), ± standard error, 3 biological replicates) | IC20 ([2]; MQ water, 2 h at 37 °C, CFU on LB agar, sigmoid fit, ± standard error, 3 biological replicates) | IC20 [2, 5] | IC80 [2, 5] | IC50 ([3]; RPMI (phosphate-containing, 5.6 mM Na2HPO4)) | IC50 ([3]; Tris-HCl (phosphate-free, 0.1 M, pH 7.4)) | solubility thermodynamic at 30 min (physchem) | IC50 ([2]; 10 mM PBS, 2 h at 37 °C, CFU on LB agar, sigmoid fit, ± standard error, 3 biological replicates, read-out: IC50) | IC50 ([2]; BL21, 2 h) | IC50 ([2]; MQ water (phosphate-free), 2 h at 37 °C, CFU on LB agar, sigmoid fit, ± standard error, 3 biological replicates, read-out: IC50)
CCCC(=O)N[C@H](CC(=O)N[C@@H](CC(=O)N[C@@H](CCCCN)CC(=O)N[C@@H](CC(=O)N[C@@H](CCCCN)CC(=O)N[C@@H](CC(N)=O)CC(C)C)CC(C)C)CC(C)C)CC(C)C [2K] | 1.52 arb. units | 1.24 arb. units | 5.15 arb. units | 11.66 arb. units | 46.1 ± 4.07 µM | 77.7 ± 3.93 µM | 11.2 ± 0.373 µM | 7.06 ± 0.343 µM | 54 ± 12.2 µM | 74.2 ± 10.8 µM | – | – | – | – | – | –
CCCC(=O)N[C@H](CC(=O)N[C@@H](CC(=O)N[C@@H](CCCCN)CC(=O)N[C@@H](CC(=O)N[C@@H](CCCCN)CC(=O)N[C@@H](CC(=O)N[C@@H](CCCCN)CC(=O)N[C@@H](CC(N)=O)CC(C)C)CC(C)C)CC(C)C)CC(C)C)CC(C)C [3K] | 3.21 arb. units | 7.78 arb. units | 14.27 arb. units | 19.27 arb. units | 9.27 ± 1.45 µM | 14.6 ± 1.46 µM | – | – | 4.22 ± 0.82 µM | 7 ± 1.02 µM | 126 ± 7.1 µM | 112 ± 8.4 µM | ~20 µM (≈ 23 µg/mL) | 11.6 ± 1.5 µM | 5.44 ± 0.91 µM | 1.24 µM
